Measurements reported in patent US10544444B2, “Compositions for in situ labeling of bacterial cell walls with fluorophores and methods of use thereof” (priority 2012, dated 2020).

Legend:
[1] = test system: E. coli, B. subtilis, A. tumefaciens, L. lactis, M. conglomeratus, C. crescentus and S. aureus; test: Short pulse labeling of evolutionarily distinct bacteria; assay type: cell-based; details: pulsed for 2%-8% of generation time, immediately fixed
[2] = test system: Agrobacterium tumefaciens; test: Cell wall / PG labeling of live A. tumefaciens, fluorescence microscopy; assay type: cell-based; details: for incorporation into the cell wall: control experiments, fluorescent D-Ala vs fluorescent L-Ala

SMILES | visibility of sites of active cell wall synthesis [1] | incorporation into the cell wall [2] | PG labeling, long labeling pulses ([2]; live A. tumefaciens, long pulse)
NC(CNC(=O)c1cc2ccc(O)cc2oc1=O)C(=O)O (stereo not shown) [HADA] | sites of active synthesis were clearly visible | incorporated into the cell wall | uniformly label PG
N[C@@H](CNC(=O)c1cc2ccc(O)cc2oc1=O)C(=O)O [HALA] |  | only D-HCC was incorporated | 
